Data published in patent EP0354453A2, “Antimicrobial agent for animals” (priority 1988, dated 1990).

Tests used:
[1] = system: Bordetella bronchiaseptica AR3; assay: in vitro antimicrobial activity (MIC), agar dilution, Part 1; format: cell-based; details: Bordetella bronchiaseptica AR3, Pig; Mueller Hinton agar, 37°C, 18-24 hours
Protocol: (§1) Test microorganisms listed in Table 2 were cultured overnight in heart infusion nutrient broth (produced by Eiken Chemical Co., Ltd.). Culture broth containing about 10⁸/ml cells was diluted to a volume of 100 times. An aliquot (about 0.05 ml) of the diluted broth was inoculated onto a Mueller Hinton agar plate (produced by Eiken Chemical Co., Ltd.) to which Compound No. 1 was added in a prescribed concentration. […]

Escherichia coli 15-4 = assay: as above; format: cell-based; details: 154; Escherichia coli 15-4, Cow; Mueller Hinton agar, 37°C, 18-24 hours
Protocol: as §1

Escherichia coli 164 = assay: as above; format: cell-based; details: Escherichia coli 164, Pig; Mueller Hinton agar, 37°C, 18-24 hours
Protocol: as §1

Escherichia coli 442 = assay: as above; format: cell-based; details: Escherichia coli 442, Chicken; Mueller Hinton agar, 37°C, 18-24 hours
Protocol: as §1

[2] = system: Salmonella typhimurium 101; assay: as above; format: cell-based; details: Salmonella enterica; Salmonella typhimurium 101, Chicken; Mueller Hinton agar, 37°C, 18-24 hours
Protocol: as §1

[3] = system: Salmonella typhimurium 595; assay: as above; format: cell-based; details: Salmonella enterica; Salmonella typhimurium 595, Pig; Mueller Hinton agar, 37°C, 18-24 hours
Protocol: as §1

[4] = system: Staphylococcus aureus Aichi 2; assay: as above; format: cell-based; details: AICHI2; Staphylococcus aureus Aichi 2, Chicken; Mueller Hinton agar, 37°C, 18-24 hours
Protocol: as §1

[5] = system: Bordetella bronchiaseptica OKM-1; assay: in vitro antimicrobial activity (MIC), agar dilution, Part 2; format: cell-based; details: Bordetella, OKM1, Bordetella bronchiaseptica OKM-1, Pig; read-out: MIC
Protocol: as §1
(§2) MIC of Compounds (1)-(8) against various pathogenic bacteria derived from animals was determined in the same manner as in Example 1.

Escherichia coli 139 = assay: as above; format: cell-based; details: Escherichia coli 139, Cow; read-out: MIC
Protocol: as §1, §2

Escherichia coli 881 = assay: as above; format: cell-based; details: Escherichia coli, 881, Escherichia coli 881, Pig; read-out: MIC
Protocol: as §1, §2

Escherichia coli S6W = assay: as above; format: cell-based; details: Escherichia coli, S6W, Escherichia coli S6W, Chicken; read-out: MIC
Protocol: as §1, §2

[6] = system: Salmonella typhimurium 103; assay: as above; format: cell-based; details: Salmonella enterica; Salmonella typhimurium 103, Chicken; read-out: MIC
Protocol: as §1, §2

[7] = system: Salmonella typhimurium 569; assay: as above; format: cell-based; details: Salmonella enterica, TYPHIMURIUM, Salmonella typhimurium 569, Pig; read-out: MIC
Protocol: as §1, §2

[8] = system: Staphylococcus aureus Yamaguchi 6; assay: as above; format: cell-based; details: Staphylococcus aureus Yamaguchi 6, Chicken; read-out: MIC
Protocol: as §1, §2

[9] = system: Mycoplasma gallisepticum Strain 2004; assay: in vitro antimicrobial activity (MIC) in Frey liquid medium; format: cell-based; details: Mycoplasmoides gallisepticum, STRAIN2004; Mycoplasma gallisepticum Strain 2004, from chicken; Frey liquid medium, 37°C, 3-5 days; read-out: MIC
Protocol: (§3) Various test strains of Mycoplasma gallisepticum derived from chicken were cultured in a Frey liquid medium for Mycoplasma for 3 days. The culture broth containing about 10⁸/ml cells was diluted to a volume of 100 times. The diluted broth was inoculated into Frey liquid media for Mycoplasma to which the compounds of this invention were added at prescribed concentrations. The cells were incubated at 37°C for 3-5 days while daily observing the color of the media. Among the culture broths maintaining yellow color at the time when the control to which no test compound was added turned red, the concentration of the broth having the minimum concentration was taken as the MIC of the compound.

[10] = system: Mycoplasma gallisepticum Strain 2012; assay: as above; format: cell-based; details: Mycoplasmoides gallisepticum, STRAIN2012; Mycoplasma gallisepticum Strain 2012, from chicken; Frey liquid medium, 37°C, 3-5 days; read-out: MIC
Protocol: as §3

[11] = system: Mycoplasma gallisepticum Strain DP-1047; assay: as above; format: cell-based; details: Mycoplasmoides gallisepticum; Mycoplasma gallisepticum Strain DP-1047, from chicken; Frey liquid medium, 37°C, 3-5 days; read-out: MIC
Protocol: as §3

[12] = system: Mycoplasma gallisepticum Strain T-2; assay: as above; format: cell-based; details: Mycoplasmoides gallisepticum; Mycoplasma gallisepticum Strain T-2, from chicken; Frey liquid medium, 37°C, 3-5 days; read-out: MIC
Protocol: as §3

[13] = system: Mycoplasma gallisepticum Strain T-7; assay: as above; format: cell-based; details: Mycoplasmoides gallisepticum, Mycoplasma gallisepticum Strain T-7, from chicken, 37°C, 3-5 days
Protocol: as §3

Escherichia coli = assay: Effect of oral administration on chicken inoculated with Escherichia coli; format: in vivo; details: for Chickens developing disease in air sac (naked eye observation) / No. of dead chickens: 5 tested chickens
Protocol: Escherichia coli cells collected from infected chicken were cultured overnight in a trypticase soy broth (BBL). 0.2 ml of this culture broth was injected into the trachea of chickens of average body weight of 80 g using a 1 ml disposable injection needle. Beginning 2 hours after the inoculation, feeds to which Compound (1) had been added in the amount of 50 ppm, 25 ppm, or 12.5 ppm were freely given to the chickens for 5 days. Following the administration of Compound (1) the chickens were given feed with no addition of drug for 5 days. The surviving chickens were sacrificed and dissected. After examination of the degree of disease in the air sac, Escherichia coli in the trachea, lung, and air sac were quantitatively determined. […]

Mycoplasma gallisepticum = assay: Effect of oral administration on chicken inoculated with Mycoplasma gallisepticum; format: in vivo; details: for Chickens developing disease in air sac (naked eye observation) / No. of dead chickens: 5 tested chickens
Protocol: Mycoplasma gallisepticum cells collected from chickens having respiratory Mycoplasma infection were cultured for 3 days in a Frey liquid media for Mycoplasma. 0.2 ml of this culture broth was injected into the trachea of chickens of an average body weight of 80 g using a 1 ml disposable injection needle. Beginning from the next day following the inoculation, feeds to which Compound (1) had been added in the amount of 100 ppm, 75 ppm, or 50 ppm were freely given to the chickens for 5 days. Following the administration of Compound (1) the chickens were given feed containing no drug for a further 5 days. The surviving chickens were sacrificed and dissected. After examination of the degree of disease in the air sac, Mycoplasma gallisepticum in the infraorbital sinus, trachea, lung, and air sac were determined. […] TABLE 6 […]

[14] = system: pathogenic bacteria derived from animals; assay: in vitro antimicrobial activity, Part 1, overall comparison; format: cell-based; details: summary of Table 2
Protocol: as §1

C[C@H]1COc2c(N3CCN(C)CC3)c(F)cc3c(=O)c(C(=O)O)cn1c23 [Compound (1), 3S-9-fluoro-2,3-dihydro-3-methyl-10-(4-methyl-1-piperazinyl)-7-oxo-7H-pyrido[1,2,3-de] [1,4]benzoxazine-6-carboxylic acid hemihydrate]
MIC [1]: 0.2 µg/mL | MIC (Escherichia coli 15-4): 0.05 µg/mL | MIC (Escherichia coli 164): 0.05 µg/mL | MIC (Escherichia coli 442): 0.025 µg/mL | MIC [2]: 0.025 µg/mL | MIC [3]: 0.05 µg/mL | MIC [4]: 0.1 µg/mL | MIC [5]: 0.2 µg/mL | MIC (Escherichia coli 139): 0.05 µg/mL | MIC (Escherichia coli 881): 0.05 µg/mL | MIC (Escherichia coli S6W): 0.025 µg/mL | MIC [6]: 0.05 µg/mL | MIC [7]: 0.05 µg/mL | MIC [8]: 0.05 µg/mL | MIC [9]: 0.0125 µg/mL | MIC [10]: 0.025 µg/mL | MIC [11]: 0.025 µg/mL | MIC [12]: 0.05 µg/mL | MIC [13]: 0.05 µg/mL | Escherichia coli collected in Air sac (Escherichia coli; 12.5 ppm in feed for 5 days): 3.99 Logarithmic number of collected cells per 1 g of tissue | Escherichia coli collected in Lung (Escherichia coli; 12.5 ppm in feed for 5 days): 2.78 Logarithmic number of collected cells per 1 g of tissue | Escherichia coli collected in Trachea (Escherichia coli; 12.5 ppm in feed for 5 days): 2.78 Logarithmic number of collected cells per 1 g of tissue | Chickens developing disease in air sac (naked eye observation) (Escherichia coli; 12.5 ppm in feed for 5 days): 3 | No. of dead chickens (Escherichia coli; 12.5 ppm in feed for 5 days): 1 | Escherichia coli collected in Air sac (Escherichia coli; 25 ppm in feed for 5 days): 0 Logarithmic number of collected cells per 1 g of tissue | Escherichia coli collected in Lung (Escherichia coli; 25 ppm in feed for 5 days): 0 Logarithmic number of collected cells per 1 g of tissue | Escherichia coli collected in Trachea (Escherichia coli; 25 ppm in feed for 5 days): 0 Logarithmic number of collected cells per 1 g of tissue | Chickens developing disease in air sac (naked eye observation) (Escherichia coli; 25 ppm in feed for 5 days): 1 | No. of dead chickens (Escherichia coli; 25 ppm in feed for 5 days): 0 | Escherichia coli collected in Air sac (Escherichia coli; 50 ppm in feed for 5 days): 0 Logarithmic number of collected cells per 1 g of tissue | Escherichia coli collected in Lung (Escherichia coli; 50 ppm in feed for 5 days): 0 Logarithmic number of collected cells per 1 g of tissue | Escherichia coli collected in Trachea (Escherichia coli; 50 ppm in feed for 5 days): 0 Logarithmic number of collected cells per 1 g of tissue | Chickens developing disease in air sac (naked eye observation) (Escherichia coli; 50 ppm in feed for 5 days): 0 | No. of dead chickens (Escherichia coli; 50 ppm in feed for 5 days): 0 | Mycoplasma gallisepticum collected in Air sac (Mycoplasma gallisepticum; 50 ppm in feed for 5 days): 2.32 Logarithmic number of collected cells per 1 g of tissue | Mycoplasma gallisepticum collected in Infraorbital sinus (Mycoplasma gallisepticum; 50 ppm in feed for 5 days): 0/5 | Mycoplasma gallisepticum collected in Lung (Mycoplasma gallisepticum; 50 ppm in feed for 5 days): 0 Logarithmic number of collected cells per 1 g of tissue | Mycoplasma gallisepticum collected in Trachea (Mycoplasma gallisepticum; 50 ppm in feed for 5 days): 0 Logarithmic number of collected cells per 1 g of tissue | Chickens developing disease in air sac (naked eye observation) (Mycoplasma gallisepticum; 50 ppm in feed for 5 days): 0 | No. of dead chickens (Mycoplasma gallisepticum; 50 ppm in feed for 5 days): 0 | Mycoplasma gallisepticum collected in Air sac (Mycoplasma gallisepticum; 75 ppm in feed for 5 days): 0 Logarithmic number of collected cells per 1 g of tissue | Mycoplasma gallisepticum collected in Infraorbital sinus (Mycoplasma gallisepticum; 75 ppm in feed for 5 days): 0/5 | Mycoplasma gallisepticum collected in Lung (Mycoplasma gallisepticum; 75 ppm in feed for 5 days): 0 Logarithmic number of collected cells per 1 g of tissue | Mycoplasma gallisepticum collected in Trachea (Mycoplasma gallisepticum; 75 ppm in feed for 5 days): 0 Logarithmic number of collected cells per 1 g of tissue | Chickens developing disease in air sac (naked eye observation) (Mycoplasma gallisepticum; 75 ppm in feed for 5 days): 0 | No. of dead chickens (Mycoplasma gallisepticum; 75 ppm in feed for 5 days): 0 | Mycoplasma gallisepticum collected in Air sac (Mycoplasma gallisepticum; 100 ppm in feed for 5 days): 0 Logarithmic number of collected cells per 1 g of tissue | Mycoplasma gallisepticum collected in Infraorbital sinus (Mycoplasma gallisepticum; 100 ppm in feed for 5 days): 0/5 | Mycoplasma gallisepticum collected in Lung (Mycoplasma gallisepticum; 100 ppm in feed for 5 days): 0 Logarithmic number of collected cells per 1 g of tissue | Mycoplasma gallisepticum collected in Trachea (Mycoplasma gallisepticum; 100 ppm in feed for 5 days): 0 Logarithmic number of collected cells per 1 g of tissue | Chickens developing disease in air sac (naked eye observation) (Mycoplasma gallisepticum; 100 ppm in feed for 5 days): 0 | No. of dead chickens (Mycoplasma gallisepticum; 100 ppm in feed for 5 days): 0 | antimicrobial activities compared with Ofloxacin [14]: higher antimicrobial activities than its known racemic isomer (Ofloxacin)
